Laboratory results reported in patent publication US20140243403A1, “TREATING COLORECTAL, PANCREATIC, AND LUNG CANCER” (The General Hospital Corporation, priority 2011, published 2014).

What was measured:
Test in all cases: Cellular proliferation and viability, CRC cell line panel
Format in all cases: cell-based, human
C170 cells = settings: KRAS G13D (KRAS-dependent), BRAF WT, CTNNB1 WT, 3 days post-treatment
Procedure: (§1) (A) IC50 values (μM) for effects on cellular proliferation and viability with the TAK1 kinase inhibitor 5z-7-oxozeaenol in a panel of colon cancer cell lines that have been genotyped as KRAS mutant (KRAS-independent—circles or KRAS-dependent—squares), BRAF mutant (triangles) or wild-type for both KRAS and BRAF (OTHER—diamonds). Effects on growth were measured 3 days post-treatment. Data are represented as the mean of 3 independent experiments and error bars indicate the median±interquartile range. *denotes p<0.00001; n.s.—not significant.
(§2) To further validate TAK1 as a candidate therapeutic target in this context, a potent and selective TAK1 kinase inhibitor, 5Z-7-oxozeaenol (Rawlins et al., 1999), was used. Sensitivity to 5Z-7-oxozeaenol was tested in a panel of 47 colon cancer cell lines with various genotypes (FIGS. 3A and 9A). KRAS and BRAF genotypes were either procured from the Sanger Institute's Catalog of Somatic Mutations (COSMIC) or determined by targeted resequencing (Table 2). KRAS mutation status was determined as described above; the same methods were used to determine the mutation states of BRAF. BRAF exon15 was sequenced with TCATAATGCTTGCTCTGATAGGA (forward; SEQ ID NO:3) and GGCCAAAAATTTAATCAGTGG (reverse; SEQ ID NO:4).

CL-11 cells = settings: KRAS V14I (KRAS-dependent), BRAF WT, CTNNB1 WT, 3 days post-treatment
Procedure: as §1, §2

CL-34 cells = settings: KRAS WT, BRAF V600E, 3 days post-treatment
Procedure: as §1, §2

COLO-205 cells = settings: KRAS WT, BRAF V600E, APC del, CTNNB1 WT, 3 days post-treatment
Procedure: as §1, §2

COLO-678 cells = settings: KRAS G12D (KRAS-dependent), BRAF WT, APC del, CTNNB1 WT, 3 days post-treatment
Procedure: as §1, §2

CaR-1 cells = settings: KRAS WT, BRAF WT, 3 days post-treatment
Procedure: as §1, §2

DLD-1 cells = settings: KRAS G13D, BRAF WT, APC del, CTNNB1 WT, 3 days post-treatment
Procedure: as §1, §2

HCC56 cells = settings: KRAS G12V, BRAF WT, 3 days post-treatment
Procedure: as §1, §2

HCT-15 cells = settings: KRAS G13D, BRAF WT, APC del, CTNNB1 WT, 3 days post-treatment
Procedure: as §1, §2

HCT-8 cells = settings: KRAS G13D, BRAF WT, APC del, CTNNB1 WT, 3 days post-treatment
Procedure: as §1, §2

HRT-18 cells = settings: KRAS G13D, BRAF WT, APC del, CTNNB1 WT, 3 days post-treatment
Procedure: as §1, §2

HT115 cells = settings: KRAS WT, BRAF WT, APC WT, CTNNB1 WT, 3 days post-treatment
Procedure: as §1, §2

LS-174T cells = settings: KRAS G12D, BRAF WT, APC WT, CTNNB1 S45A, 3 days post-treatment
Procedure: as §1, §2

OUMS-23 cells = settings: KRAS WT, BRAF WT, 3 days post-treatment
Procedure: as §1, §2

RCM-1 cells = settings: KRAS G12V (KRAS-dependent), BRAF WT, APC del, CTNNB1 WT, 3 days post-treatment
Procedure: as §1, §2

RKO cells = settings: KRAS WT, BRAF V600E, APC del, CTNNB1 WT, 3 days post-treatment
Procedure: as §1, §2

SKCO1 cells = settings: KRAS G12V (KRAS-dependent), BRAF WT, APC del, CTNNB1 WT, 3 days post-treatment
Procedure: as §1, §2

SW1116 cells = settings: KRAS G12A (KRAS-dependent), BRAF WT, APC del, CTNNB1 WT, 3 days post-treatment
Procedure: as §1, §2

SW620 cells = settings: KRAS G12V (KRAS-dependent), BRAF WT, APC del, CTNNB1 WT, 3 days post-treatment
Procedure: as §1, §2

SW837 cells = settings: KRAS G12C, BRAF WT, APC del, CTNNB1 WT, 3 days post-treatment
Procedure: as §1, §2

SW948 cells = settings: KRAS Q61L, BRAF WT, APC del, CTNNB1 WT, 3 days post-treatment
Procedure: as §1, §2

## COc1cc(O)c2c(c1)/C=C/C[C@H](O)[C@H](O)C(=O)/C=C\C[C@H](C)OC2=O [5Z-7-oxozeaenol]
C170 cells
  IC50: 1.07 µM
CL-11 cells
  IC50: 1.16 µM
CL-34 cells
  IC50: 0.489 µM
COLO-205 cells
  IC50: 1.3 µM
COLO-678 cells
  IC50: 0.774 µM
CaR-1 cells
  IC50: 6.08 µM
DLD-1 cells
  IC50: 8.23 µM
HCC56 cells
  IC50: 2.34 µM
HCT-15 cells
  IC50: 8.2 µM
HCT-8 cells
  IC50: 47.3 µM
HRT-18 cells
  IC50: 60 µM
HT115 cells
  IC50: 1.33 µM
LS-174T cells
  IC50: 6.23 µM
OUMS-23 cells
  IC50: 48.4 µM
RCM-1 cells
  IC50: 0.277 µM
RKO cells
  IC50: 1.1 µM
SKCO1 cells
  IC50: 0.026 µM
SW1116 cells
  IC50: 0.122 µM
SW620 cells
  IC50: 0.093 µM
SW837 cells
  IC50: 5.95 µM
SW948 cells
  IC50: 2.32 µM
